Measurements taken from patent US6569633B1, “Modulation of the sulfonylurea receptor and calcium in adipocytes for treatment of obesity/diabetes” (Artecel Science, Inc., priority 1998, dated 2003).

Columns and labels:
human adipocytes [1] = test: Lipolysis (glycerol release into the culture medium) in human adipocytes; assay type: cell-based
Experimental: FIG. 4. The anti-lipolytic effect of glibenclamide in human adipocytes. Activation of lipolysis in adipocytes is typically measured by release of glycerol into the media. Human adipocytes were treated with 10 μM glibenclamide alone, 10 μM glibenclamide plus 10 μM diazoxide or 10 μM glibenclamide plus 30 μM nitrendipine for 48 hr. Glycerol release was determined as described (19). *p<0.01 vs. Control.
Human adipocytes were examined for changes in lipolysis regulation by measurement of glycerol release into the media. Glycerol was measured by using a standard method (19), although other techniques for measuring glycerol would be equally useful.
Human subcutaneous abdominal adipose tissue was obtained from patients undergoing elective abdominal cosmetic surgery, although other types of adipose tissue, such as mesenteric, retroperitoneal, perirenal, or omental may be useful in identifying these compounds. Preadipocytes are isolated by collagenase treatment of the tissue and cultured adipocytes prepared as described (patent filed; Jan. 29, 1999; Ser. No. 09/240,029). Agents that regulate calcium flux in adipocytes as noted above can mediate lipolysis. Human adipocytes may be cultured in multi-well plates with different treatments between 1 hour or 24 hours as indicated, and glycerol release into the culture medium was determined as an indicator for lipolysis using a one-step enzymatic fluorometric method. The media collected from 1 hr treatments were used directly for glycerol measurements. For 24 hr treatments, media were removed, and cells were washed with Hank's Balanced Salt Solution and incubated in fresh medium for a further 10-60 min. This media were then used for glycerol measurements for 24 hr treatments.
We next investigated the role of adipocyte SUR1 on lipolysis. Lipolysis was measured as follows. Human adipocytes were treated as described below and glycerol release into the culture medium was determined as an indicator for lipolysis using a one step enzymatic fluorometric method (19). After treatment medium was obtained, HClO4 was added for deproteinization.
Agents that regulate calcium flux in adipocytes as noted above can mediate lipolysis. Human adipocytes (1 mL cells/well) were incubated in 24-well plates with different treatments for either 1 hour or 24 hours as indicated, and glycerol release into the culture medium was determined as an indicator for lipolysis using a one-step enzymatic fluorometric method. The media collected from 1 hr treatments were used directly for glycerol measurements. For 24 hr treatments, media were removed, and cells were washed with Hank's Balanced Salt Solution and incubated in fresh medium for a further 30 min. This media were then used for glycerol measurements for 24 hr treatments. After medium was collected, HClO4 was added to give a final concentration of 3% for deproteinization. The sample was centrifuged at 9000×g for 20 min. The supernatant was then collected and neutralized with 10N NaOH. Samples were stored at −80° C. prior to glycerol assay. Cells were collected, homogenized and stored at −80° C. for subsequent total protein correction by a modified Bradford method using Coomassie Blue dye (PIERCE, Rockford, Ill.).

[2] = system: FAS activity in human adipocytes; test: Fatty acid synthase (FAS) activity in human adipocytes; assay type: cell-based
human adipocytes [3] = test: Triglyceride accumulation in human adipocytes; assay type: cell-based; settings: for triglyceride content: control 30.3±0.3
Experimental: Human subcutaneous abdominal adipocytes were isolated from healthy patients undergoing cosmetic liposuction using methodology we have previously described. Briefly, the tissue was washed several times with Hank's Balanced Salt Solution, minced into small fragments and digested with type I collagenase (1 mg/mL) in a shaking water bath at 37° C. for 30-40 minutes. Cells were then filtered through a sterile nylon filter (500 μm mesh) and cultured in Dulbecco's Modified Eagle's Medium (DMEM) supplemented with 1% fetal bovine serum, 1% bovine serum albumin, 100 U/mL penicillin, 100 μg/mL streptomycin and 50 μg/mL gentamicin. Cells were subsequently cultured in suspension in sterile polypropylene flasks in a humidified 37° C./5% CO2 incubator. After one day, suspended (floating) adipocytes were transferred to fresh medium and maintained as a thin layer at the top of the culture medium to ensure access to nutrients. The cells were maintained for another 24 hours in this medium and then changed to fresh medium with the addition of SUR agonists (such as glibenclamide) for up to 48 hours with the compounds to be tested. Medium was changed every 24 hours, and cell viability was verified with trypan blue exclusion at the end of representative experiments.
Stimulation of fatty acid synthase and concomitant inhibition of lipolysis results in increased lipid accumulation in human adipocytes. Adipocytes were treated as described above, harvested, and their triglyceride content was analyzed and normalized for protein content. […] Thus, these calcium-stimulated biochemical activities will contribute to the development of adipocyte hypertrophy and potentially obesity.

human adipocytes [4] = test: Intracellular Ca2+ ([Ca2+]i) by fura-2 fluorometry in isolated human adipocytes; assay type: cell-based
Experimental: FIG. 2. Glibenclamide stimulation of [Ca^2+]i in isolated human adipocyte. [Ca^2+]i in isolated human adipocytes was determined fluorometrically as previously described (4,7). Briefly, the human adipocytes isolated as described above were incubated in DMEM medium overnight for cell recovery. Prior to [Ca^2+]i measurement, adipocytes were pre-incubated in serum-free medium for 2 hrs, rinsed with HBSS solution containing the following components in mM: NaCl 138, CaCl2 1.8, MgSO4 0.8, NaH2PO4 0.9, NaHCO3 4, glucose 20, glutamine 6, HEPES 20 and BSA 1%. Cells were then loaded with fura-2 acetoxymethyl ester (10 μM) in the same buffer for 45 min at 37° C. in the dark with continuous shaking. To remove extracellular dye, cells were rinsed with HBSS for 3 times and resuspended in this solution at a concentration of 2×10^5 cells/ml. [Ca^2+]i was measured using dual excitation (340 and 380 nm) and single emission (510 nm) fluorometry. Following the establishment of stable baseline, the response to glibenclamide (10 and 20 μM) was determined. Digitonin (25 μM) and Tris/EGTA (100 mM) were used to measure maximal and minimal fluorescence to calibrate the signals, and final [Ca^2+]i was then calculated by the equation of Grynkiewicz et al. (17). […] Glibenclamide (Glib) was added at time designated by the arrow. B. The dose-responsive effect of glibenclamide on [Ca^2+]i in human adipocytes. Glibenclamide was added at 10 and 20 µM at the indicated times. *p<0.05 vs. Control, **p<0.05 vs. 10 μM glibenclamide.
The functionality of the SUR1 receptor was determined with respect to calcium mobilization and small molecule effects. [Ca^2+]i response was measured fluorometrically in isolated human adipocytes using a standard method (2,16). Briefly, isolated human adipocytes were incubated in DMEM or any other suitable medium such as Ham's F-10, Modified Eagle's media plus 5-10% fetal calf serum overnight for cell recovery. Prior to [Ca^2+]i measurement, adipocytes were pre-incubated in serum-free medium for 2 hrs, rinsed with HBSS solution containing the following components in mM: NaCl 138, CaCl2 1.8, MgSO4 0.8, NaH2PO4 0.9, NaHCO3 4, glucose 20, glutamine 6, HEPES 20 and BSA 1%. Cells were then loaded with fura-2 acetoxymethyl ester (10 μM) in the same buffer for 30-60 min at 37° C. in dark with continuous shaking. To remove extracellular dye, cells were rinsed with HBSS for three times and resuspended in this solution at a concentration of 1-10×10^5 cells/ml. [Ca^2+]i was measured using dual excitation (340 and 380 nm) and single emission (510 nm) fluorometry. Following the establishment of stable baseline, the response to a SUR agonist such as glibenclamide (1-20 μM) can be determined. Digitonin (25 μM) and Tris/EGTA (100 mM) were used to measure maximal and minimal fluorescence to calibrate the signals, and final [Ca^2+]i was then calculated by a known method such as described in Grynkiewicz et al (17).
Correlation of lipolysis with flux of intracellular calcium ([Ca^2+]i) concentration is then performed. [Ca^2+]i is measured in primary adipocytes. For primary adipocytes, 3 ml of cells are resuspended in 6 ml of HBSS and fura-2/AM was loaded for 80 min at 37° C. Extracellular fura-2/AM is washed three times with HBSS by centrifugation. [Ca^2+]i levels are then measured fluorometrically in suspensions using dual excitation (340 and 380 nm)/single emission (510 nm) fluorometry and [Ca^2+]i is calculated by the computer in the fluorometer. As a control, after loading fura-2/AM cells are pretreated with nitrendipine (RBI, Natick, Mass.) (30 μM, final concentration) for 10 min at 37° C.

[5] = system: GPDH activity in human adipocytes; test: GPDH activity in human adipocytes; assay type: cell-based; settings: 10 μM glibenclamide plus 10 μM diazoxide
Experimental: FIG. 3. The lipogenic effect of glibenclamide in human adipocytes. As an indicator of lipogenic stimulation, both FAS and GPDH activity were measured. A. Glibenclamide stimulation of FAS activity. Human adipocytes were treated with 10 μM glibenclamide alone, 10 μM glibenclamide plus 10 μM diazoxide or 10 μM glibenclamide plus 30 μM nitrendipine for 48 hr. FAS was measured as described (6, 14). *p<0.001 vs. Control. B. Glibenclamide stimulation of GPDH activity. Human adipocytes were treated with 10 μM glibenclamide or 10 μM glibenclamide plus 10 μM diazoxide for 48 hr. GPDH activity was measured as described (14). *p<0.01 vs. Control.
To study the role of adipocyte SUR1 in regulating lipogenesis, we treated human adipocyte with SUR1 agonist and antagonist using FAS and GPDH activities as lipogenic markers. Human adipocytes were incubated in 24-well plates with the treatments indicated for 48 hr. FAS and GPDH activities were determined spectrophotometrically in crude cytosolic extracts of human adipocytes by measuring the oxidation rate of NADPH or NADH respectively, as previously described (14). The protein correction was measured by a modified Bradford method using Coomassie Blue dye (Pierce, Rockford, Ill.).

obese Zucker rats = settings: cited from earlier work
[6] = system: hyperinsulinemic obese adults; settings: cited from earlier work

NC(=O)CC[C@@H]1NC(=O)[C@H](Cc2ccccc2)NC(=O)[C@H](Cc2ccc(O)cc2)NC(=O)[C@@H](N)CSSC[C@@H](C(=O)N2CCC[C@H]2C(=O)N[C@@H](CCCN=C(N)N)C(=O)NCC(N)=O)NC(=O)[C@H](CC(N)=O)NC1=O [AVP, arginine vasopressin]
inhibition of forskolin-induced lipolysis (human adipocytes [1]; 1 nM AVP, short-term): 56±6.6%
fatty acid synthase activity ([2]; 1 nM AVP): 6.9±0.1 nmol/min/mg protein

insulin
fatty acid synthase activity ([2]; 1 nM insulin, control 3.95±0.11): 14.56±0.22 nmol/min/mg protein

C=C[C@@]1(C)CC(=O)[C@]2(O)[C@@]3(C)[C@@H](O)CCC(C)(C)[C@@H]3[C@H](O)[C@H](OC(C)=O)[C@@]2(C)O1 [forskolin]
increase in lipolysis (human adipocytes [1]; 1 μM forskolin): 48%

CCOC(=O)C1=C(C)NC(C)=C(C(=O)OC)C1c1cccc([N+](=O)[O-])c1 (stereo not drawn) [nitrendipine]
fatty acid synthase activity ([2]; 1 nM insulin plus 30 μM nitrendipine): 4.12 ± 0.03 nmol/min/mg
reduction in insulin-stimulated triglyceride accumulation (human adipocytes [3]; 1 nM insulin plus nitrendipine): 40%

CC1=NS(=O)(=O)c2cc(Cl)ccc2N1 [diazoxide]
[Ca2+]i response to any dose of glibenclamide (human adipocytes [4]; in the presence of 5 μM diazoxide): no detectable response
[Ca2+]i response to any dose of glibenclamide (human adipocytes [4]; in the presence of 2-10 μM diazoxide): no detectable response
fatty acid synthase activity ([2]; 1 nM insulin and 5 μM diazoxide): 7.08 ± 0.10 nmol/min/mg
fatty acid synthase activity ([2]; 5 μM diazoxide and 2 μM glibenclamide): 1.00±0.10 nmol/min/mg protein
fatty acid synthase activity ([2]; 5 μM diazoxide and 10 μM glibenclamide): 1.21±0.31 nmol/min/mg protein
glibenclamide-caused increase in FAS activity ([2]; 10 μM glibenclamide plus 10 μM diazoxide, 48 hr): completely blocked
fatty acid synthase activity ([2]; 40 mM KCl in the presence of 5 μM diazoxide): 3.24±0.41 nmol/min/mg protein
glibenclamide-induced increases in fatty acid synthase activity ([2]; inclusion of 5 μM diazoxide): completely prevented
glibenclamide-stimulated increase in GPDH activity [5]: totally blocked
effect on obesity (obese Zucker rats): antiobesity effect
effect on obesity [6]: significant antiobesity effect

[Cl-].[K+] [KCl]
lipolysis, % of control levels (human adipocytes [1]; 10 mM KCl, twenty-four hour exposure): 75.9±4.1%
inhibition of forskolin-induced lipolysis (human adipocytes [1]; 25 mM KCl, short-term (one-hour)): 42±5%
inhibition of forskolin-induced lipolysis (human adipocytes [1]; 40 mM KCl, short-term (one-hour)): 50±1.7%
fatty acid synthase activity ([2]; 40 mM KCl for two hours, harvested approximately 72 hours later, control 3.93±0.11): 6.24±0.2 nmol NADPH/min/mg protein
fatty acid synthase activity ([2]; 40 mM KCl, control 2.87 (diazoxide experiment)): 6.20±0.57 nmol/min/mg protein
triglyceride content (human adipocytes [3]; 40 mM KCl): 43.5±0.5 μg/mg protein

CNc1ccc2oc(C[C@H]3O[C@@]4(CC[C@H]3C)O[C@H]([C@H](C)C(=O)c3ccc[nH]3)[C@H](C)C[C@H]4C)nc2c1C(=O)O [A23187]
triglyceride accumulation (human adipocytes [3]; two-hour exposure to 10 nM A23187, ensuing 48 hours, control 31.4±2.4): 52±7 μg/mg protein

B1: agouti: recombinant agouti protein, purified agouti gene product from a baculovirus expression system (protein, UniProt Q03288 23-131, looked up)
Agouti-signaling protein: HLALEETLGDDRSLRSNSSMNSLDFSSVSIVALNKKSKKISRKEAEKRKRSSKKKASMKKVARPPPPSPCVATRDSCKPPAPACCDPCASCQCRFFGSACTCRVLNPNC
decrease in basal lipolysis (human adipocytes [1]; 100 nM recombinant agouti, 24 hr): 60%
effect on basal lipolysis (human adipocytes [1]; 100 nM recombinant agouti, short-term (1 hr)): no effect
forskolin-induced increase in lipolysis (human adipocytes [1]; 1 μM forskolin plus 100 nM agouti): reversed
ACTH-induced lipolysis (human adipocytes [1]; short-term agouti treatment): totally inhibited

B2: parathyroid hormone (peptide, UniProt P01270 32-115, looked up)
Parathyroid hormone: SVSEIQLMHNLGKHLNSMERVEWLRKKLQDVHNFVALGAPLAPRDAGSQRPRKKEDNVLVESHEKSLGEADKADVNVLTKAKSQ
modifications: Parathyroid hormone
notes: stimulator of receptor-mediated Ca2+ influx
fatty acid synthase activity ([2]; 4.8 nM PTH): 6.9±0.1 nmol/min/mg protein
triglyceride content (human adipocytes [3]; 4.8 nM PTH): 54.5±0.6 μg/mg protein
